The text below walks through data of patent US10688099B2, “Methods for modulating the amount of RNA transcripts” (PTC Therapeutics, Inc., priority 2013, dated 2020).

This assay has as its system RNA isoforms in PNN 1-46 SMA type I patient-derived fibroblasts. The assay can be described thus: RNA Abundance Modulation (RNA isoform abundance, iFPM, HiSeq RNA sequencing). The assay is classed as cell-based, human. The settings on record: 24 hrs, PNN 1-46 fibroblasts. The procedure: Cells from a cell line of interest are cultured in conditions sufficient to yield the number of cells capable of generating enough RNA for subsequent sequencing steps. Cells from the tested cell line are contacted with a compound described herein.
To culture said cells, they are seeded, at appropriate concentrations in a volume of media in a cell culture container and incubated for 4, 5, 6, 7, 8, 9, 10, or more hours. A concentrated solution of compound in a vehicle (e.g., DMSO) is then added in sufficient volume to result in the intended final concentration of the compound, for example 100 nM, 500 nM, 1 μM, 5 μM, 10 μM, 15 μM, 20 μM, or more. The cells may also be treated with vehicle alone, as a control. A number of replicates of each concentration or control may be made (e.g., 2 replicates). The cells are then incubated at a constant temperature appropriate for cell culture of the particular cell line (e.g., 37° C.) for 6, 12, 18, 24, 48, or more hours. After incubation, the growth medium is removed and the cells are washed with the appropriate buffer (e.g., PBS). Cells are then removed from adherence to the cell culture container by treatment with a solution containing trypsin, and the trypsin subsequently quenched with the appropriate volume of buffer (e.g., DMEM-FBS). The cells are then pelleted with gentle centrifugation (e.g., ≤90×g centrifugal force) and resuspended in a buffer to lyse the cells for extraction of RNA. The cell lysates may then be frozen (e.g., at −80° C.) or, alternately, may immediately be used in a procedure to purify the RNA (e.g. by use of the RNEASY PLUS® minikit). The RNA from cell lysates is eluted in the appropriate volume of buffer (e.g., RNEASE-FREE H2O®). The resulting purified RNA may then be sequenced (e.g., using RNASeq) or analyzed using a human exon array (e.g., by GENECHIP® human exon array) to determine changes in the RNA levels in those cells treated with compound compared to those cells treated only with DMSO. The purified RNA may also be quantified by other methods known in the art.
Using the RNA data obtained from sequencing, exon array, or other methods, a statistical analysis can reveal changes in the RNA levels of compound-treated compared with control. For example, t-test p-values may be calculated for the data obtained through sequencing and exon array methods in order to compare compound-treated cells to those treated with the DMSO control. […] Analysis of the sequencing and exon array data may then also yield predictions about the cause of the aberrant amount of an RNA transcript in the cells (e.g., perturbation of RNA splicing, RNA transcription, or RNA stability). These predictions may be further confirmed by methods known in the art. For example, RT-PCR and RT-qPCR may be used to confirm the change in amount of RNA transcripts for one or more particular transcripts of interest.
Following the methods described above in Example 1, PNN 1-46 SMA type I patient-derived fibroblasts were treated with 300 nM or 3 μM Compounds 774 and 808 in 0.5% DMSO.
700,000 cells were seeded in 10 mL of medium (DMEM plus 10% FBS) in a T-75 flask. Cells were allowed to attach for at least 4 hrs, after which 50 μL of a 200× compound solution (100% DMSO) was added to each well, and the plate was incubated at 37° C. for 24 hrs.
At the end of the incubation period, the supernatant was removed and the cells where washed with PBS. TrypLE (Invitrogen) express solution was added (e.g. 1.5 mL per one T75 flask). The flasks were incubated for 3 to 5 min at 37° C. The trypsin was then quenched, e.g., by adding 10 mL DMEM-FBS.
Next, the cells were pelleted using gentle centrifugation without exceeding 90×g centrifugal force. The supernatant was removed and the cell pellet was re-suspended in 600 μL RLT buffer (the RLT buffer was supplemented with beta-mercaptoethanol according to the RNeasy protocol manual) by pipetting up and down until the pellet was completely dissolved […]

`Cc1cn2cc(-c3cc(=O)n4cc(N5CCN(C)CC5)ccc4n3)cc(C)c2n1` [Compound 808]: the “RNA abundance modulation (effect on isoform fold increase)” value is “modulates RNA abundance” (0.3 μM) and “modulates RNA abundance” (3 μM).
